Measured values reported in patent US20230340012A1, “NATURAL AND SYNTHETIC COMPOUNDS FOR TREATING CANCER AND OTHER DISEASES” (PACIFIC ARROW LIMITED, priority 2009, published 2023).

How the values were obtained:
Erythrocytes (RBC) = experiment: The haemolytic assay; settings: in words, no concentration given
[1] = system: ANGPT2, DDIT3, LIF and NFKB1Z; settings: Real-time PCR; results in Table 19-21 of PCT/US09/34115; cited from earlier work
cancer cells = experiment: Inhibition of cancer growth, cancer invasion, cell invasion or cancer cell invasion; format: cell-based
From the text: The program is based on our purification methods and biological assays including the MTT assay. See International Application No. PCT/US05/31900, filed Sep. 7, 2005, U.S. Serial No. 11/289,142, filed Nov. 28, 2005, and U.S. Serial No. 11/131551, filed May 17, 2005, and PCT/US2008/002086, 1188-ALA-PCT, filed Feb. 15, 2008, 12/344,682, 1020-B1-US, filed Dec. 29, 2008. The details of Analysis of gene expression of ES2 cells after Y-treatment by Microarray, Data Analysis Methods and Western blot in PCT/US2008/002086, 1188-ALA-PCT, filed Feb. 15, 2008, and the cell invasion experiments methods in International Application PCT/US2010/0042240, filed Jul. 16, 2010.

Row | Structure (SMILES) | hemolytic activity (Erythrocytes (RBC)) | expression of the genes ANGPT2, DDIT3, LIF and NFKB1Z [1] | inhibiting cancer growth, cancer invasion, cell invasion or cancer cell invasion (cancer cells)
1 | C/C=C(/C)C(=O)O[C@H]1[C@H](OC(=O)/C(C)=C\C)[C@@]2(CO)C(CC1(C)C)C1=CCC3[C@@]4(C)CC[C@H](O)C(C)(C)C4CC[C@@]3(C)[C@]1(C)[C@@H](O)[C@H]2O (stereo partly shown) [ACH-Y3] | less potent | increase | has the ability to inhibit
2 | C/C=C(/C)C(=O)O[C@H]1[C@H](OC(=O)/C(C)=C\C)[C@@]2(CO)C(CC1(C)C)C1=CCC3[C@@]4(C)CC[C@H](O[C@@H]5OC(C(=O)O)[C@@H](O)[C@@H](O[C@@H]6O[C@@H](CO)[C@@H](O)C6O)C5O[C@@H]5OC(CO)[C@H](O)[C@@H](O)C5O)C(C)(C)C4CC[C@@]3(C)[C@]1(C)[C@@H](O)[C@H]2O (stereo partly drawn) [Compound Y, 3-O-[β-D-galactopyranosyl (1→2)]-α-L-arabinofuranosy (1→3)-β-D-glucuronopyranosyl-21,22-O-diangeloyl-3β, 15α, 16α, 21β, 22α, 28-hexahydroxyolean-12-ene] | – | increase | –
